# Measured values: patent publication US20090221538A1, “METHODS OF TREATING MULTIPLE SCLEROSIS BY ADMINISTERING PULSE DOSE CALCITRIOL” (priority 2008, published 2009)
# “Also recorded” adds a separate entry of the source.
# How the values were obtained:
# [1] = Spinal cord 1,25-(OH)2D3 extraction and radioimmunoassay; assay type: in vivo, mouse; conditions: 200 ng 1,25-(OH)2D3 pulse dose plus vitamin D3 supplementation; end of the study
# Protocol: The vitamin D3 and 1,25-(OH)2D3 were obtained from Sigma Chemical Co. The vitamin D3 was dissolved in safflower oil and stored in the dark at 5° C. The 1,25-(OH)2D3 was dissolved in 100% ethanol (1 mg/mL) and stored in the dark under nitrogen gas at −20° C. The concentration of 1,25-(OH)2D3 was determined by spectral analysis. Animals with stage 2.3±0.3 were randomized into treatment groups. The details of the treatments are given in the figure legends and table footnotes. The synthetic diet used in some experiments was formulated to contain all essential nutrients except vitamin D3 and was prepared exactly as we described (Spach and Hayes, 2005, J. Immunol. 175:4119-4126). For experiments using supplementary vitamin D3, the placebo group was fed the synthetic diet ad libidum without added vitamin D3, whereas the vitamin D3-supplemented group was fed the synthetic diet ad libidum with vitamin D3 added in an amount to provide 1 μg/d, calculated based on a daily measured consumption of 4.0 g dry weight of diet per mouse. Fresh synthetic diet was provided three times per week. At several times during the study, mice were weighed and blood samples were obtained from the tail vein. At the conclusion of the study, the mice were euthanized, a blood sample was obtained, perfusion was done, and the spinal cords and optic nerves were removed. […]
# splenocytes = experiment: Splenocyte staining and FACS analysis after pulse dose; assay type: in vivo, mouse
# Protocol: For flow cytometric analysis, splenocytes were dissociated into ice-cold Hank's balanced salt solution with HEPES buffer, and RBC were depleted. Duplicate samples (10^6 cells/sample) were stained (30-45 min on ice) with optimal amounts of the mAb conjugates in staining buffer (PBS pH 7.3 with 5% heat-inactivated FBS and 0.1% NaN3). Reference samples stained with single-color mAb served as controls to select fluorescence gates and flow cytometer compensation. The fluorescent mAb conjugates used for this analysis were FITC-labeled mAb to CD4 (clone L3T4) and APC-labeled mAb to CD11b (clone Macla) from Southern Biotechnology, and PE-labeled mAb to CD8 (clone alpha) and biotin-labeled mAb to CD45R (B220) from Invitrogen. PerCP-Cy5.5 was from BD/Pharmingan. Stained samples were analyzed on a FACScalibur™ using CELLQuest™ software (BD Biosciences, Franklin Lakes, N.J.).
# MS = conditions: daily calcitriol treatments, cited from earlier work
# EAE = conditions: mouse, in vivo; cited from earlier work
# [2] = splenocytes 14 days after a 175 ng pulse dose, no significant differences from normal control mice
structure (smiles),measurement,setting,value
"C=C1/C(=C\C=C2/CCC[C@]3(C)[C@@H]([C@H](C)CCCC(C)(C)O)CC[C@@H]23)C[C@@H](O)C[C@@H]1O [1,25-(OH)2D3, 1,25-dihydroxy vitamin D3]","1,25-(OH)3D3 in the spinal cord",[1],18.8 ± 6.6 pmol/mL
same,numbers of splenocytes recovered,"splenocytes; 14 days after a 175 ng pulse dose, no significant differences from normal control mice",43±9 million cells
same,depletion of splenic lymphocytes and monocytes / immunodeficient state,"splenocytes; B10.PL mice with EAE, 175 ng pulse dose, two weeks post treatment",did deplete; also recorded: did not result in an immunodeficient state
same,proportion of B220+ B lymphocytes,splenocytes; [2],63±3%
same,proportion of CD4+ T lymphocytes,splenocytes; [2],18±1%
same,proportion of CD8+ T lymphocytes,splenocytes; [2],11±1%
same,proportion of CD11b+ monocytes,splenocytes; [2],18±2%
same,MS progression,MS,completely inhibited
same,patients who withdrew from the trial with symptomatic hypercalcemia,MS,2 of the 15
same,MS relapse rate (average),MS; decreased from 1.0/yr,0.2 /yr
same,EAE disease induction,EAE,strongly inhibited
same,EAE progression,EAE,prevented progression
same,established EAE disease,EAE,reversed established disease
